# Data from patent US4330529A, “Antibacterial composition” (Fujisawa Pharmaceutical Co., Ltd., priority 1979, dated 1982).
# What was measured:
# [1] = test system: Klebsiella pneumoniae NCTC 418; test: MIC and FIC, Nutrient agar (Tests 2, 3); assay type: cell-based; conditions: NCTC418, K. pneumoniae NCTC 418, 20 h
# Description: After the incubation was carried out at 37° C. for 20 hours, MIC values were determined.
# [2] = test system: Serratia marcescens 1421-4; test: MIC and FIC, Nutrient agar (Tests 2, 3); assay type: cell-based; conditions: Serratia marcescens, 14214, 20 h
# [3] = test system: Enterobacter aerogenes 1402-10; test: MIC and FIC, Nutrient agar (Tests 2, 3); assay type: cell-based; conditions: Klebsiella aerogenes, 140210, 20 h
# [4] = test system: Enterobacter cloacae 1401-4; test: MIC and FIC, Nutrient agar (Tests 2, 3); assay type: cell-based; conditions: E. cloacae 1401-4
# Citrobacter freundii 35 = test: MIC and FIC, Nutrient agar (Tests 6, 7, 9); assay type: cell-based
# Proteus vulgaris 5 = test: MIC and FIC, Nutrient agar (Test 6); assay type: cell-based; conditions: Proteus vulgaris; P. vulgaris 5; 18 h; read-out: MIC
# Description: (§1) FIC values and FIC Index were calculated in substantially the same manner as described in Test 1.
# Staphylococcus aureus 3 = test: MIC and FIC, Nutrient agar (Tests 6, 7); assay type: cell-based; conditions: Staphylococcus aureus; S. aureus 3; 18 h; read-out: MIC
# Description: as §1
# [5] = test system: Enterobacter aerogenes 25; test: microbe, parasite or virus in culture; conditions: Klebsiella aerogenes, 25, 18 h
# [6] = test system: Pseudomonas aeruginosa 42; test: MIC and FIC, Nutrient agar (Test 7); assay type: cell-based; conditions: Pseudomonas aeruginosa; P. aeruginosa 42; 18 h; read-out: MIC
# Description: as §1
# Staphylococcus aureus 1 = test: MIC and FIC, Nutrient agar (Test 7); assay type: cell-based; conditions: S. aureus 1, 18 h
# Description: as §1
# Escherichia coli 116 = test: MIC and FIC, Nutrient agar (Test 7); assay type: cell-based; conditions: E. coli 116, 18 h
# Description: as §1
compound,measurement,setting,value
O=CN(O)CCCP(=O)(O)O [A (Table 2)],MIC,[1],25 µg/mL
same,MIC,[2],50 µg/mL
same,MIC,[3],6.25 µg/mL
same,MIC,"[4]; 20 h, listed as A (Table 3)",3.16 µg/mL
same,MIC,"[4]; 20 h, listed as A (Table 4)",3.13 µg/mL
same,MIC,"[4]; Enterobacter cloacae, 14014, 20 h",3.13 µg/mL
same,MIC,"Citrobacter freundii 35; C. freundii 35, 18 h, listed as A (Table 9)",100 µg/mL
same,MIC,"Citrobacter freundii 35; C. freundii 35, 18 h, listed as A (Table 10)",100 µg/mL
same,MIC,"Citrobacter freundii 35; Citrobacter freundii, 35, 18 h",50 µg/mL
same,MIC,"Citrobacter freundii 35; Citrobacter freundii, 35, 18 h, C. freundii 35, 18 h",100 µg/mL
same,MIC,Proteus vulgaris 5,25 µg/mL
same,MIC,Staphylococcus aureus 3,400 µg/mL
same,MIC,[5],100 µg/mL
same,MIC,[6],50 µg/mL
same,MIC,Staphylococcus aureus 1,400 µg/mL
same,MIC,Escherichia coli 116,200 µg/mL
